What is called IC50 is the concentration needed to halve the response being measured.

24 compounds from patent publication US9718774B2, “Indole carboxamide derivatives as P2X7 receptor antagonist” (ACTELION PHARMACEUTICALS LTD, priority 2012, dated 2017) can be followed below.

The target in this assay is T1, human recombinant P2X7 receptor (Homo sapiens, UniProt Q99572).
T1 construct: expressed in transfected cells
T1 sequence (Q99572 1-595): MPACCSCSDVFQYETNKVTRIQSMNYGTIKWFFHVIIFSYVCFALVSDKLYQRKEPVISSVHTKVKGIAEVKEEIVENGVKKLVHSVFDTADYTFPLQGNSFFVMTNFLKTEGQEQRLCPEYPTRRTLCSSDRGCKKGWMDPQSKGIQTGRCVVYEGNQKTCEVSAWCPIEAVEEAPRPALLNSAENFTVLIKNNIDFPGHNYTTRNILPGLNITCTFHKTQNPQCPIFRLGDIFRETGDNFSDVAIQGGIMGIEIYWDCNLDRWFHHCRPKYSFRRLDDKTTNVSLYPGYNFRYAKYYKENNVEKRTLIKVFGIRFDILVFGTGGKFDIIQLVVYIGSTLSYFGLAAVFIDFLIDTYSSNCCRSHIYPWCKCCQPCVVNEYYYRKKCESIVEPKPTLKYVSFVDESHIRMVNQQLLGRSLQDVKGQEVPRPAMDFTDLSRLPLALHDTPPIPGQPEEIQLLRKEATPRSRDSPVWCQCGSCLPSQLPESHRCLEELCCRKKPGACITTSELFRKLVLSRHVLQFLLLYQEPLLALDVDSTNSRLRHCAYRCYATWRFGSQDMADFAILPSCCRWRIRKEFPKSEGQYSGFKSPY
The assay can be described thus: YO-PRO assay: P2X7 receptor antagonistic activity in HEK cells stably expressing P2X7. It is filed as cell-based. As to conditions: antagonistic activity with respect to the P2X7 receptor, read-out: IC50. On the procedure: The P2X7 receptor antagonistic activity of the compounds of formula (I) is determined in accordance with the following experimental method.
Cell Line Generation and YO-PRO Assay
Cell line generation was performed in general according to established molecular cloning protocols. Specifically, RNA was extracted from human whole blood using the Qiagen RNeasy kit (Qiagen, CH) according to the manufacturer's instructions. Subsequently cDNA was made (Superscript II, Invitrogen AG, CH) and the human P2X7 gene (genbank ref. BC011913) was amplified with the following primers: […] and […]. The amplified sequence was subsequently ligated into a pcDNA3.1 (+) NotI, NheI digested plasmid. Human embryonic kidney (HEK) cells (ATCC CRL—1573, Manassas, Va., USA) were transfected with the pcDNA3.1 (+).hP2X7 plasmid using lipofectamine 2000 (Invitrogen AG, CH) according to the manufacturer's instructions. Following a 24 h exposure to DNA, cells were trypsinized and re-seeded at low density in the presence of 250 μg Geneticin. Geneticin resistant cells were then selected during two consecutive rounds of cloning by serial limiting dilution with visual inspection. Individual clones were screened for P2X7 expression by applying ATP and recording the resultant uptake of YO-PRO1. Specific cell clones were chosen based on RNA and protein expression. HEK cells stably expressing P2X7 were used to screen drugs using the YO-PRO1 assay. Cells were grown to confluency in adherent culture at 37° C. in a humidified 5% CO2 incubator (split 1/5 every 3-4 days with DMEM, 10% FCS, 1% Penicillin/Streptomycin, 250 μg/ml Geneticin). Adherent cells were detached by incubation with Trypsine (1 ml per 165 cm^2 dish) for 2 minutes, then washed off with 10 ml PBS (without Mg^2+ and Ca^2+), and resuspended in DMEM, 10% FCS, 1% Penicillin/Streptomycin, no Geneticin. 10′000 cells per well (48 hours before the assay) or 25′000 cells per well (Vi-cell XR (Beckman Coulter) (24 hours before the assay) in 50 μl full medium were seeded on 384-well black-wall, clear bottom plates, that were coated before with 10 μl per well Poly-L-Lysine, incubated for 30-60 minutes at 37° C. and washed once with PBS. Medium was removed from cells and 50 μl of assay buffer containing 0.5 μM YO-PRO-1 was added into the wells. Solutions of antagonist compounds were prepared by serial dilutions of a 10 mM DMSO solution of the antagonist into PBS using a BioMek (Beckman Coulter). Each concentration was performed in duplicate. For IC50 measurements 10 concentration points were measured (10 μM being the highest concentration followed by 9 serial dilution steps 1/3). The cells were incubated with the antagonists of the present invention together with ATP at a final concentration of 250 μM for 90 minutes. During this time period, four time points were taken. Each time point comprised the average of several measurements made within a few seconds. Fluorescence was measured in the FLIPR tetra (Molecular Devices) using the filters appropriate for YO-PRO-1 fluorescence (excitation 485/20, emission 530/25). The FLIPR tetra was equipped with Molecular Devices Screen Works system control software to define and run experimental protocols. […] For IC50 measurements the maximum intensity is plotted against the concentration of compound to determine IC50 values.
For `O=C(NCC(c1cncnc1)N1CCCCC1)c1ccc2[nH]ccc2c1Cl` (racemic) [Example 27, rac-4-Chloro-1H-indole-5-carboxylic acid (2-piperidin-1-yl-2-pyrimidin-5-yl-ethyl)-amide], the IC50 worked out at 8.7 nM.

Turning to `Cn1cc(C(CNC(=O)c2ccc3[nH]ccc3c2Cl)N2CCOCC2)cn1` (racemic) [Example 28, rac-4-Chloro-1H-indole-5-carboxylic acid [2-(1-methyl-1H-pyrazol-4-yl)-2-morpholin-4-yl-ethyl]-amide], the IC50 is 66 nM.

Regarding `Cn1cc(C(CNC(=O)c2ccc3[nH]ccc3c2Cl)N2CCCCC2)cn1` (racemic) [Example 29, rac-4-Chloro-1H-indole-5-carboxylic acid [2-(1-methyl-1H-pyrazol-4-yl)-2-piperidin-1-yl-ethyl]-amide], the IC50 is 161 nM.

As to `O=C(NCC(c1c(F)cc(F)cc1F)N1CCCCC1)c1ccc2[nH]ccc2c1Cl` (racemic) [Example 30, rac-4-Chloro-1H-indole-5-carboxylic acid [2-piperidin-1-yl-2-(2,4,6-trifluoro-phenyl)-ethyl]-amide], the concentration for half-maximal inhibition (IC50) worked out at 1300 nM.

As for `O=C(NCC(c1ccc(F)cc1F)N1CCCCC1)c1ccc2[nH]ccc2c1Cl` (racemic) [Example 31, rac-4-Chloro-1H-indole-5-carboxylic acid [2-(2,4-difluoro-phenyl)-2-piperidin-1-yl-ethyl]-amide], the IC50 was 251 nM.

Turning to `O=C(NCC(c1ccc(F)cn1)N1CCCCC1)c1ccc2[nH]ccc2c1Cl` (racemic) [Example 32, rac-4-Chloro-1H-indole-5-carboxylic acid [2-(5-fluoro-pyridin-2-yl)-2-piperidin-1-yl-ethyl]-amide], the IC50 amounted to 232 nM.

For `O=C(NCC(c1c(F)cc(F)cc1F)N1CCOCC1)c1ccc2[nH]ccc2c1Cl` (racemic) [Example 33, rac-4-Chloro-1H-indole-5-carboxylic acid [2-morpholin-4-yl-2-(2,4,6-trifluoro-phenyl)-ethyl]-amide], the IC50 worked out at 301 nM.

On to `O=C(NCC(c1ccc(F)cc1F)N1CCOCC1)c1ccc2[nH]ccc2c1Cl` (racemic) [Example 34, rac-4-Chloro-1H-indole-5-carboxylic acid [2-(2,4-difluoro-phenyl)-2-morpholin-4-yl-ethyl]-amide], for which the IC50 came to 61 nM.

Take `O=C(NCC(c1ccccc1F)N1CCOCC1)c1ccc2[nH]ccc2c1Cl` (racemic) [Example 35, rac-4-Chloro-1H-indole-5-carboxylic acid [2-(2-fluoro-phenyl)-2-morpholin-4-yl-ethyl]-amide]: the concentration for half-maximal inhibition (IC50) stood at 161 nM.

`O=C(NCC(c1ccc(F)cn1)N1CCOCC1)c1ccc2[nH]ccc2c1Cl` (racemic) [Example 36, rac-4-Chloro-1H-indole-5-carboxylic acid [2-(5-fluoro-pyridin-2-yl)-2-morpholin-4-yl-ethyl]-amide]: the IC50 amounted to 265 nM.

As to `O=C(NCC(c1cccc(F)c1)N1CCOCC1)c1ccc2[nH]ccc2c1Cl` (racemic) [Example 37, rac-4-Chloro-1H-indole-5-carboxylic acid [2-(3-fluoro-phenyl)-2-morpholin-4-yl-ethyl]-amide], the half-inhibitory concentration (IC50) was found to be 32 nM.

For the compound `O=C(NCC(c1ccc(Cl)cc1)N1CCOCC1)c1ccc2[nH]ccc2c1Cl` (racemic) [Example 38, rac-4-Chloro-1H-indole-5-carboxylic acid [2-(4-chloro-phenyl)-2-morpholin-4-yl-ethyl]-amide], the concentration for half-maximal inhibition (IC50) is 15 nM.

For the compound `O=C(NCC(c1ccc(Cl)cc1Cl)N1CCOCC1)c1ccc2[nH]ccc2c1Cl` (racemic) [Example 39, rac-4-Chloro-1H-indole-5-carboxylic acid [2-(2,4-dichloro-phenyl)-2-morpholin-4-yl-ethyl]-amide], the IC50 was 455 nM.

On to `O=C(NCC(c1ccc(Cl)cc1F)N1CCOCC1)c1ccc2[nH]ccc2c1Cl` (racemic) [Example 40, rac-4-Chloro-1H-indole-5-carboxylic acid [2-(4-chloro-2-fluoro-phenyl)-2-morpholin-4-yl-ethyl]-amide], for which the IC50 worked out at 73 nM.

In the case of `O=C(NCC(c1cccc(F)c1)N1CCCCC1)c1ccc2[nH]ccc2c1Cl` (racemic) [Example 43, rac-4-Chloro-1H-indole-5-carboxylic acid [2-(3-fluoro-phenyl)-2-piperidin-1-yl-ethyl]-amide], the IC50 is 163 nM.

Turning to `O=C(NCC(c1ccc(C(F)(F)F)cc1)N1CCCCC1)c1ccc2[nH]ccc2c1Cl` (racemic) [Example 44, rac-4-Chloro-1H-indole-5-carboxylic acid [2-piperidin-1-yl-2-(4-trifluoromethyl-phenyl)-ethyl]-amide], the IC50 is 889 nM.

Regarding `O=C(NCC(c1ccc(F)c(F)c1)N1CCCCC1)c1ccc2[nH]ccc2c1Cl` (racemic) [Example 45, rac-4-Chloro-1H-indole-5-carboxylic acid [2-(3,4-difluoro-phenyl)-2-piperidin-1-yl-ethyl]-amide], the IC50 stood at 83 nM.

`O=C(NCC(c1cccnc1)N1CCCCC1)c1ccc2[nH]ccc2c1Cl` (racemic) [Example 46, rac-4-Chloro-1H-indole-5-carboxylic acid (2-piperidin-1-yl-2-pyridin-3-yl-ethyl)-amide]: the concentration for half-maximal inhibition (IC50) is 39 nM.

Take `Cc1ccc(C(CNC(=O)c2ccc3[nH]ccc3c2Cl)N2CCOCC2)cc1` (racemic) [Example 47, rac-4-Chloro-1H-indole-5-carboxylic acid (2-morpholin-4-yl-2-p-tolyl-ethyl)-amide]: the IC50 was 54 nM.

In the case of `O=C(NCC(c1ccc(OC(F)(F)F)cc1)N1CCOCC1)c1ccc2[nH]ccc2c1Cl` (racemic) [Example 48, rac-4-Chloro-1H-indole-5-carboxylic acid [2-morpholin-4-yl-2-(4-trifluoromethoxy-phenyl)-ethyl]-amide], the IC50 turned out to be 134 nM.

Regarding `O=C(NCC(c1ccc(C(F)(F)F)cc1)N1CCOCC1)c1ccc2[nH]ccc2c1Cl` (racemic) [Example 49, rac-4-Chloro-1H-indole-5-carboxylic acid [2-morpholin-4-yl-2-(4-trifluoromethyl-phenyl)-ethyl]-amide], the IC50 amounted to 34 nM.

With `O=C(NCC(c1ccc(F)c(F)c1)N1CCOCC1)c1ccc2[nH]ccc2c1Cl` (racemic) [Example 50, rac-4-Chloro-1H-indole-5-carboxylic acid [2-(3,4-difluoro-phenyl)-2-morpholin-4-yl-ethyl]-amide], the 50% inhibitory concentration (IC50) worked out at 13 nM.

As to `Cc1ncc(C(CNC(=O)c2ccc3[nH]ccc3c2Cl)C2CCOCC2)cn1` (racemic) [Example 51, rac-4-Chloro-1H-indole-5-carboxylic acid [2-(2-methyl-pyrimidin-5-yl)-2-(tetrahydro-pyran-4-yl)-ethyl]-amide], the IC50 worked out at 16 nM.

Consider `Cc1ncc(C(CNC(=O)c2ccc3[nH]ccc3c2Cl)OC2CCCC2)cn1` (racemic) [Example 52, rac-4-Chloro-1H-indole-5-carboxylic acid [2-cyclopentyloxy-2-(2-methyl-pyrimidin-5-yl)-ethyl]-amide], for which the IC50 came to 32 nM.
